Data from ChEMBL document CHEMBL3621135 (ACS Med Chem Lett, 2015).
The source made the active and inactive calls. No cut-off for these calls is given here.

Legend:
[1] = target: Tyrosine-protein kinase JAK2 (Homo sapiens, UniProt O60674); test: Inhibition of JAK2 in human SET2 cells assessed as reduction in STAT5 phosphorylation incubated for 2 hrs by Western blot method; format: cell-based
BaF3 = test: Antiproliferative activity against IL3-stimulated mouse BAF3 cells incubated for 72 hrs by [3H] thymidine incorporation assay; format: functional, cell-based
[2] = Antiproliferative activity against mouse CTLL-2 cells incubated for 72 hrs by [3H] thymidine incorporation assay; format: functional, cell-based
Mus musculus [3] = test: Inhibition of JAK2 in mouse pharamcodynamic model assessed as reduction in STAT5 phosphorylation at 30 mg/kg, po after 18 hrs; format: functional, organism-based
[4] = AUC (0 to 24 hrs) in dog; format: ADME, organism-based, Canis lupus familiaris; set-up: time < 24 hr; details: in vivo
[5] = AUC (0 to 24 hrs) in rat assessed as drug tolerability at 15 mg/kg/day for 2 weeks measured on day 14; format: ADME, organism-based; set-up: time < 24 hr, dose 15 mg/kg/day; details: in vivo
Rattus norvegicus = test: Reduction in reticulocytes in rat at 15 mg/kg/day for 2 weeks; format: functional, organism-based
Cytochrome P450 1A2 = target: T1, Cytochrome P450 1A2 (Homo sapiens, UniProt P05177); test: Inhibition of CYP1A2 in human liver microsomes; format: ADME
T1 sequence (P05177 whole entry): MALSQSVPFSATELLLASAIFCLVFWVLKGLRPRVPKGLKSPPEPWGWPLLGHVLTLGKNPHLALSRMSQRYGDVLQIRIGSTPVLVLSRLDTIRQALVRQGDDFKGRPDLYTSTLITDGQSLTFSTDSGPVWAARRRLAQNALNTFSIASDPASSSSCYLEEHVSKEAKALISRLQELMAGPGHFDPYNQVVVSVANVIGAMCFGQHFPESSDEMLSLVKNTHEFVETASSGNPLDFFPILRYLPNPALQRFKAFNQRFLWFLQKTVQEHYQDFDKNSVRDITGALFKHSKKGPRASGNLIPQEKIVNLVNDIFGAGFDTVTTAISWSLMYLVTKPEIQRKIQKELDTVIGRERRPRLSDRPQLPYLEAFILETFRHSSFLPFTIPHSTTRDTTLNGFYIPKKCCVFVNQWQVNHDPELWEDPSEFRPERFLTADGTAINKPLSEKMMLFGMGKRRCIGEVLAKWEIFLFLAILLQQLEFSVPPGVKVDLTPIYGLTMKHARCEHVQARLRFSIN

[6] = target: T2, Nuclear receptor subfamily 1 group I member 2 (Homo sapiens, UniProt O75469); test: Activation of PXR (unknown origin); format: ADME
T2 sequence (O75469 whole entry): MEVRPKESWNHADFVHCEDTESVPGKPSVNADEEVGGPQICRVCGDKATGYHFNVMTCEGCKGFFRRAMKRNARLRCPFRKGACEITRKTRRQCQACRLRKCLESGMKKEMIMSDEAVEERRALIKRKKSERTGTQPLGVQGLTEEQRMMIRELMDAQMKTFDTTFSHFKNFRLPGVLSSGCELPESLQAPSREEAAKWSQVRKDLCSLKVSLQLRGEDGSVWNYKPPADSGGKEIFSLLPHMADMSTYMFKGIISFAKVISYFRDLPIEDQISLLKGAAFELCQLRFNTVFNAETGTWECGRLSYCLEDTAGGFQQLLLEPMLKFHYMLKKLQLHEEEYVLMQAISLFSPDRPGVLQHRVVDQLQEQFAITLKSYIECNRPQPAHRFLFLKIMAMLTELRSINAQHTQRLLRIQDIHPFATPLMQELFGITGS

Mus musculus [7] = test: Oral bioavailability in mouse at 10 mg/kg; format: ADME, organism-based; details: in vivo
[8] = Clearance in rat at 1 mg/kg, iv and 1 mg/kg, po; format: ADME, organism-based; details: in vivo
[9] = Half life in rat at 1 mg/kg, iv and 1 mg/kg, po; format: ADME, organism-based; details: in vivo
[10] = Oral bioavailability in rat at 1 mg/kg; format: ADME, organism-based; details: in vivo
[11] = Half life in dog at 0.2 mg/kg, iv and 0.2 mg/kg, po; format: ADME, organism-based, Canis lupus familiaris; details: in vivo
[12] = target: T3, Tyrosine-protein kinase JAK1 (Homo sapiens, UniProt P23458); test: Inhibition of recombinant JAK1 (unknown origin) using 5-FAM-KKKKEEIYFFFG-OH substrate and ATP incubated for 180 mins by […] method
T3 sequence (P23458 whole entry): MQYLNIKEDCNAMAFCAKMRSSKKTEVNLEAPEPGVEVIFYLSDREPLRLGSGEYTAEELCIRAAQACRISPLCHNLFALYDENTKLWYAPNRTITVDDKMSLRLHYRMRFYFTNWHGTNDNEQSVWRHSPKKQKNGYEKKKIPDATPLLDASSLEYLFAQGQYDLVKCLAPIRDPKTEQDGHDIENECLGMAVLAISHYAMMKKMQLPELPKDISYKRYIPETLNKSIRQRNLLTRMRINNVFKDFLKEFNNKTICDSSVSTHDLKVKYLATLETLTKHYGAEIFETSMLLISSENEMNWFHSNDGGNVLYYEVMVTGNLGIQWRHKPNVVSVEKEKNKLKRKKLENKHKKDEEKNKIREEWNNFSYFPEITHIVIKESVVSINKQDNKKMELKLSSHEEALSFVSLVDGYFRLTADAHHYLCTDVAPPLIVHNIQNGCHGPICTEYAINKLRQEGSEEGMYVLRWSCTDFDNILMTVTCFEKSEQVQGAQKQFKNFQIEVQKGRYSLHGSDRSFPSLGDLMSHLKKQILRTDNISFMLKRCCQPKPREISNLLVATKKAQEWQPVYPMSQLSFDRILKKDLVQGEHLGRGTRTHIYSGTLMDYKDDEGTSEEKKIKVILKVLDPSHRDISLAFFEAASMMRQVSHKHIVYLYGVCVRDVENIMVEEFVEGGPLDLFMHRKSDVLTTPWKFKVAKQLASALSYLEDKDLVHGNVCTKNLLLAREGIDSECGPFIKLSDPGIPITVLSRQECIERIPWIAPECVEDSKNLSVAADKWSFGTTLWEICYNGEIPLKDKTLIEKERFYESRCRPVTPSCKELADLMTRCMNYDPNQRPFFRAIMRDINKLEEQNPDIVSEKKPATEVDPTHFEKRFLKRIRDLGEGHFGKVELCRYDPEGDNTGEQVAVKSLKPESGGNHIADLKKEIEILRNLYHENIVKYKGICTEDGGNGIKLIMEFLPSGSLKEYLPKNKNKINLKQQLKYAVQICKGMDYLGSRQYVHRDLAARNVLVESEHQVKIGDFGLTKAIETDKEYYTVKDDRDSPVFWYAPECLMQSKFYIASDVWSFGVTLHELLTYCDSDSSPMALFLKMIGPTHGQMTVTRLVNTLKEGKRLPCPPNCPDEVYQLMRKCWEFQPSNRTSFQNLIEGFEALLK

[13] = target: T4, Tyrosine-protein kinase JAK3 (Homo sapiens, UniProt P52333); test: Inhibition of recombinant JAK3 (unknown origin) using 5-FAM-KKKKEEIYFFFG-OH substrate and ATP incubated for 180 mins by […] method
T4 sequence (P52333 whole entry): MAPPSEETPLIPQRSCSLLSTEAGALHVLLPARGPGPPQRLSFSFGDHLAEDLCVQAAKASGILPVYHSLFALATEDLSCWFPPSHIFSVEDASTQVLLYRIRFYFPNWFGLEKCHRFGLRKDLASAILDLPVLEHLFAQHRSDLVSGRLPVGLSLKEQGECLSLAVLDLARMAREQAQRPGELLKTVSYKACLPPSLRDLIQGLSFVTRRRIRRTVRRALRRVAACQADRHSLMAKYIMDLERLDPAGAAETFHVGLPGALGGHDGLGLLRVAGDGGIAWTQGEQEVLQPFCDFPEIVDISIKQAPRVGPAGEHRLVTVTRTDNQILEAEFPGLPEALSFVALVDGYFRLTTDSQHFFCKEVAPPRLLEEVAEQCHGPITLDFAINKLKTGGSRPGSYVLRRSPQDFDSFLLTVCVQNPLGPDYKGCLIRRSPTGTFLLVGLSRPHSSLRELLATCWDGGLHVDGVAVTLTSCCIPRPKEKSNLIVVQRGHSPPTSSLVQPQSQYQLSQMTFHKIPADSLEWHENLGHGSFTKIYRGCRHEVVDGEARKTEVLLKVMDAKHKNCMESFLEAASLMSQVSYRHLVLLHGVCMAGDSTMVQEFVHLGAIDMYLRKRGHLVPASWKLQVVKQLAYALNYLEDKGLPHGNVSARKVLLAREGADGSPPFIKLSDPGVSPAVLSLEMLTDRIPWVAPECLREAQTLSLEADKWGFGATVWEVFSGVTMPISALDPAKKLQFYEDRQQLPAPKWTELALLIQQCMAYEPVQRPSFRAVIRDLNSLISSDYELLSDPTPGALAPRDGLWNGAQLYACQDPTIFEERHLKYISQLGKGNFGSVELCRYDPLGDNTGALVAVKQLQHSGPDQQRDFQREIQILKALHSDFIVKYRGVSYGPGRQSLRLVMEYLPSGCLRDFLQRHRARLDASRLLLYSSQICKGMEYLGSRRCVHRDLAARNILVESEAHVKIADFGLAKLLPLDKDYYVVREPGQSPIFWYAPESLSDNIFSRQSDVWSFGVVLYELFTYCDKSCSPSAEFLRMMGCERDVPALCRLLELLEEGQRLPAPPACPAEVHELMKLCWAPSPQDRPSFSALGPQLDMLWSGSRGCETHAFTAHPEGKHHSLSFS

[14] = Antiproliferative activity against human SET2 cells incubated for 72 hrs by [3H] thymidine incorporation assay; format: functional, cell-based; details: SET-2
[15] = target: T3, Tyrosine-protein kinase JAK1; test: Binding affinity to JAK1 (unknown origin) assessed as dissociation constant
hERG = hERG (Homo sapiens, UniProt Q12809); test: Inhibition of human ERG channel at 30 uM
Sequence of hERG (Q12809 whole entry): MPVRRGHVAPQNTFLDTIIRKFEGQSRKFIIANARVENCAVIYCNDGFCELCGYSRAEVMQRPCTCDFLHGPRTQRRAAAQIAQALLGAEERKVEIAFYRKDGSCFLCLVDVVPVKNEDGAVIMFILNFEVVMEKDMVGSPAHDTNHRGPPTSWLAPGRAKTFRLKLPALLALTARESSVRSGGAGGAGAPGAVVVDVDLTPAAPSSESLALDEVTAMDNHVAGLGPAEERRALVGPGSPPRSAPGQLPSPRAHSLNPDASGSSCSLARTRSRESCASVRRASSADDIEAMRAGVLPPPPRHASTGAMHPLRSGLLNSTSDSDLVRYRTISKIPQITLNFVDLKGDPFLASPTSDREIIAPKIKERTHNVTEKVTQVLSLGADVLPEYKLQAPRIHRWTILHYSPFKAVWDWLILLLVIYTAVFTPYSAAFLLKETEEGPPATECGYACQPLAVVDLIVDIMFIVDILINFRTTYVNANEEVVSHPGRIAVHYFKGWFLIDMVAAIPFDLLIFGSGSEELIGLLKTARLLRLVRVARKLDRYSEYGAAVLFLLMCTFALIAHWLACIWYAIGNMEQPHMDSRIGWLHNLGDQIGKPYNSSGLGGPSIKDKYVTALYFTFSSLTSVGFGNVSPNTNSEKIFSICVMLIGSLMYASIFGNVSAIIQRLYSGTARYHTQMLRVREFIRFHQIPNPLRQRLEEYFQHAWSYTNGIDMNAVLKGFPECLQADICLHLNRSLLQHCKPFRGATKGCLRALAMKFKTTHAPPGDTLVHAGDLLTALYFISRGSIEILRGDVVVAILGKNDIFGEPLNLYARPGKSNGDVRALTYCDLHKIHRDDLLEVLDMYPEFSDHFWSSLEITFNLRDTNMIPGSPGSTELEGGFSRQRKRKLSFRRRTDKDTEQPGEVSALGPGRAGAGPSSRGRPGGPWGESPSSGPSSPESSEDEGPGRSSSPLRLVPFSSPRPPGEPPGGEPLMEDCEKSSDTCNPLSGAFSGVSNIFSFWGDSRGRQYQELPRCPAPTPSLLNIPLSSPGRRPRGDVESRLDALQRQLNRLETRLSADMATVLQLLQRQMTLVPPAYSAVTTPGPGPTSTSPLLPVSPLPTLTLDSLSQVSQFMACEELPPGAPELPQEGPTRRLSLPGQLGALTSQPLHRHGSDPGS

Sequence of Tyrosine-protein kinase JAK2 (O60674 whole entry): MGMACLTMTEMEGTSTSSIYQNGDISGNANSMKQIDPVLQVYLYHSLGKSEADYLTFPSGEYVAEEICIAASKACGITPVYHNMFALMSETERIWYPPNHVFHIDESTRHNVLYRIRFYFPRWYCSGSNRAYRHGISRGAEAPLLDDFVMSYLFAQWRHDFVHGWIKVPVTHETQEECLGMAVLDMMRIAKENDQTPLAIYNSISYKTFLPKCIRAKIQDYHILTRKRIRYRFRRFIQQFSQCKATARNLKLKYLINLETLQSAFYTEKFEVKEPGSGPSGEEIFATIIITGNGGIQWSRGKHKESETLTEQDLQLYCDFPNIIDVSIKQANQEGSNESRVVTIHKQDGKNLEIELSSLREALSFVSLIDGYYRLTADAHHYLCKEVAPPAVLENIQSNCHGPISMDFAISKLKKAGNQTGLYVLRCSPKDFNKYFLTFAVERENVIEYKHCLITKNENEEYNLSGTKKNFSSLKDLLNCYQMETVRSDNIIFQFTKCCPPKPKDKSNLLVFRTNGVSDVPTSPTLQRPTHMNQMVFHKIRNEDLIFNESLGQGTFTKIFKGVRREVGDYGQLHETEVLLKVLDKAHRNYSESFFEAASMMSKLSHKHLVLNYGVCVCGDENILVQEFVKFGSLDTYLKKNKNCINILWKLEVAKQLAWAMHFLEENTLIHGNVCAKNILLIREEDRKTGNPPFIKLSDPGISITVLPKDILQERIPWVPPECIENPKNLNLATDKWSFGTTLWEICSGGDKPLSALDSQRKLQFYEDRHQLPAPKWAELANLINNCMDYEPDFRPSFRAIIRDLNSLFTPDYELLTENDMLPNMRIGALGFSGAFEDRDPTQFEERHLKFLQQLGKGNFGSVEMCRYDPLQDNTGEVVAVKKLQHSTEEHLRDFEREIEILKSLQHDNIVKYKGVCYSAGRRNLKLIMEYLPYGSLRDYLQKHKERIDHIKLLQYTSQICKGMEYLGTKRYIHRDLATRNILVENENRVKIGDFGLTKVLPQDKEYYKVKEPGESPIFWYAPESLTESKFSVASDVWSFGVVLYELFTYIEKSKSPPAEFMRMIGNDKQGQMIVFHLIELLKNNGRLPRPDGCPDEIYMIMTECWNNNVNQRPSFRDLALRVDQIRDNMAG

## CCn1c(C(=O)N(C2CC2)C2CC2)cc2c3c(ncn3C)c(Nc3cc(C)n(C)n3)nc21 [BMS-911543]
[1]
  IC50: 80 nM
BaF3
  IC50: 3500 nM
[2]
  IC50: 2900 nM
Mus musculus [3]
  inhibition: Active
[4]
  AUC(0-t) at 24 h: 610 µM·h
[5]
  AUC at 24 h: 3200 µM·h
Rattus norvegicus
  Activity: Active
Cytochrome P450 1A2
  IC50: 1000 nM
[6]
  EC50: > 50000 nM
Mus musculus [7]
  F: 100%
[8]
  clearance: 0.7 mL/min/kg
[9]
  half-life: 5 h
[10]
  bioavailability: 100%
[11]
  half-life: 2.2 h
[12]
  IC50: 75 nM
[13]
  IC50: 360 nM
[14]
  IC50: 60 nM
[15]
  Kd: 110 nM
hERG
  inhibition at 30 µM: 20%
